Like-named read-outs stand apart in the source and are kept apart here.
Columns and labels:
human D2 receptors = target: T1, human D2 receptors (Homo sapiens, UniProt P14416); assay: competitive radioligand D2 binding assay, (Methoxy-3H)-raclopride, membranes of transfected HEK-293T cells; conditions: mean of one or two experiments; butaclamol as control
T1 construct: expressed in transfected cells; host or cells: HEK-293T

[1] = target: human D2 dopamine receptor (Homo sapiens, UniProt P14416); assay: R-SAT functional receptor assay, D2 receptor co-expressed with Gαo; conditions: for Emax: read-out: % basal response (D2 intrinsic activity); for activity at 1 µM: read-out: D2 basal (basal response, no drug = 100%)
[2] = target: human D3 dopamine receptor (Homo sapiens, UniProt P35462); assay: R-SAT functional receptor assay, D3 receptor co-expressed with Gαo; conditions: for activity at 1 µM: read-out: D3 basal (basal response, no drug = 100%)
[3] = steady state kinetics in humans given clozapine; cited from earlier work
[4] = compounds at 1 μM, mean +/− standard error, R-SAT

human D3 dopamine receptor, sequence (P35462 whole entry): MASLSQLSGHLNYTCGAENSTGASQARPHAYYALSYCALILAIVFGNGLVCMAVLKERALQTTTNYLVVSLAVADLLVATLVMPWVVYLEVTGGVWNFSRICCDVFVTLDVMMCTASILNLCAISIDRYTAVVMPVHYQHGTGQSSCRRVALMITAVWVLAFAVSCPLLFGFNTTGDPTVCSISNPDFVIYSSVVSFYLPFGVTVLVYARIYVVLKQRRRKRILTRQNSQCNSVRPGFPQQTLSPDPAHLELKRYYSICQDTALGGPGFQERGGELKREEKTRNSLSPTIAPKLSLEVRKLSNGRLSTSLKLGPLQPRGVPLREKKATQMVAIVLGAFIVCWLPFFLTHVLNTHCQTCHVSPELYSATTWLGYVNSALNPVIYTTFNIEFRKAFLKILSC
T1 sequence (P14416 whole entry): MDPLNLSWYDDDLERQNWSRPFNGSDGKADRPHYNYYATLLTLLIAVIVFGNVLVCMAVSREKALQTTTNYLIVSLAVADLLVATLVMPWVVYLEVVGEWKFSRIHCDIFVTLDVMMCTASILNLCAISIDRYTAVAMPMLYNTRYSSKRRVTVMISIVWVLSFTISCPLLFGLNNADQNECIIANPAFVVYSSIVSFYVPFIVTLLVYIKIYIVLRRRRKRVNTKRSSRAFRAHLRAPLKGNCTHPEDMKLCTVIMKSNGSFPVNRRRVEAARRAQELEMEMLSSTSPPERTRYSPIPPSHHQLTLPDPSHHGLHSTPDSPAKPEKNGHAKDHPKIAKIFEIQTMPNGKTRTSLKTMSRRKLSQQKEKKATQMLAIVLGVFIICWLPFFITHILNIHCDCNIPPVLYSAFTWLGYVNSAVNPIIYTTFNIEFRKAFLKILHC
human D2 dopamine receptor, sequence (P14416 whole entry): as above

SMILES | Ki (human D2 receptors) | Emax [1] | activity at 1 µM [2] | activity at 1 µM [1] | other results
Fc1ccc2c(c1)N=C(N1CCNCC1)c1ccccc1O2 | 501 nM | 207% | – | – | –
N#Cc1ccc2c(c1)N=C(N1CCNCC1)c1ccccc1N2 | 5010 nM | 201% | – | – | –
Clc1ccc2c(c1)N=C(N1CCCNCC1)c1ccccc1N2 | 2000 nM | 172% | – | – | –
Fc1ccc2c(c1)N=C(N1CCNCC1)c1ccccc1N2 | 2510 nM | 170% | – | – | –
Brc1ccc2c(c1)N=C(N1CCNCC1)c1ccccc1O2 | 126 nM | 155% | – | – | –
Clc1ccc2c(c1)N=C(N1CCNCC1)c1ccccc1O2 | 251 nM | 150% | – | – | –
Brc1ccc2c(c1)N=C(N1CCNCC1)c1ccccc1N2 | 158 nM | 147% | – | – | –
Brc1ccc2c(c1)N=C(N1CCNCC1)CCN2 | – | 142% | – | – | –
CN1c2ccc(Cl)cc2N=C(N2CCNCC2)c2ccccc21 | 794 nM | 141% | – | – | –
Cc1cccc2c1Oc1ccc(F)cc1N=C2N1CCNCC1 | 316 nM | 126% | – | – | –
Cc1cccc2c1Oc1ccc(C(F)(F)F)cc1N=C2N1CCNCC1 | 2510 nM | 118% | – | – | –
Clc1ccc2c(c1)N=C(N1CC3CC1CN3)c1ccccc1N2 (stereo not shown) | 2510 nM | 116% | – | – | –
Cc1cccc2c1Oc1ccc(Br)cc1N=C2N1CCNCC1 | 794 nM | 112% | – | – | –
Cc1cccc2c1Oc1ccc(Cl)cc1N=C2N1CCNCC1 | 316 nM | 106% | – | – | –
Clc1ccc2c(c1)N=C(NC[C@@H]1CCCN1)c1ccccc1N2 | 1580 nM | 105% | – | – | –
Cc1cccc2c1Nc1ccc(Cl)cc1N=C2N1CCNCC1 | 6310 nM | 102% | – | – | –
Clc1ccc2c(c1)N=C(N1CCNCC1)c1ccccc1C2 | 12.6 nM | 260% | – | – | –
CCN1CCC[C@H]1CNC(=O)c1c(O)c(Cl)cc(Cl)c1OC (racemic) [S(−)-raclopride] | – | – | – | – | D3 basal (basal response, no drug = 100%) [2, 4]: 56− %; D2 basal (basal response, no drug = 100%) [1, 4]: 60− %
OCCN1CCN([C@@H]2C[C@@H](c3ccc(F)cc3)c3ccc(C(F)(F)F)cc32)CC1 (racemic) [tefludazine] | – | – | 47% | 67% | –
Clc1ccc2c(c1)N=C(N1CCNCC1)c1ccccc1N2 [N-desmethylclozapine, 8-chloro-11-(1-piperazinyl)-5H-dibenzo[b,e][1,4]diazepine] | – | – | 188% | – | share of NDMC in total serum clozapine concentrations [3]: 40-75%; EC50 [2]: 100 nM; intrinsic activity at D3 receptor (in words) ([2]; R-SAT): partial agonist; relative efficacy to pergolide at D3 ([2]; R-SAT): 40%; EC50 [1]: 31.6 nM; intrinsic activity at D2 receptor (in words) ([1]; R-SAT): partial agonist; relative efficacy to pergolide at D2 ([1]; R-SAT): 34%; D2 basal (basal response, no drug = 100%) [1, 4]: 229 +/− 21%
O=C(CCCN1CCC(O)(c2ccc(Br)cc2)CC1)c1ccc(F)cc1 [bromperidol] | – | – | 43% | 46% | –
CC(C)(C)[C@]1(O)CCN2C[C@H]3c4ccccc4CCc4cccc(c43)[C@@H]2C1 [butaclamol] | – | – | – | – | D2 basal (basal response, no drug = 100%) [1, 4]: 60 +/− 2%
CCN(CC)CCCN1c2ccccc2Sc2ccc(Cl)cc21 [chlorproethazine] | – | – | – | – | D3 basal (basal response, no drug = 100%) [2, 4]: 63 +/− 10%; D2 basal (basal response, no drug = 100%) [1, 4]: 60 +/− 7%
OCCN1CCN(CC/C=C2/c3ccccc3Sc3ccc(C(F)(F)F)cc32)CC1 [cis-flupenthixol] | – | – | – | – | D2 basal (basal response, no drug = 100%) [1]: 59 +/− 4%

SMILES | Ki (human D2 receptors) | Emax [1] | activity at 1 µM [2] | activity at 1 µM [1] | other results
OCCN1CCN(CCCN2c3ccccc3Sc3ccc(C(F)(F)F)cc32)CC1 [fluphenazine] | – | – | 55% | 61% | –
O=C1NCN(c2ccccc2)C12CCN(CCCC(c1ccc(F)cc1)c1ccc(F)cc1)CC2 [fluspirilene] | – | – | 45% | 52% | –
CC1CCN(CCCC(=O)c2ccc(F)cc2)CC1 [melperone] | – | – | 75% | 76% | –
CCc1c(C)[nH]c2c1C(=O)C(CN1CCOCC1)CC2 (stereo not shown) [molindone] | – | – | 65% | 70% | –
Cc1ccc(C2(O)CCN(CCCC(=O)c3ccc(F)cc3)CC2)cc1 [moperone] | – | – | 52% | 64% | –
Cc1nc2c(C)cccn2c(=O)c1CCN1CCC(c2noc3cc(F)ccc23)CC1 [ocaperiodone] | – | – | – | – | D3 basal (basal response, no drug = 100%) [2, 4]: 51 +/− 10%; D2 basal (basal response, no drug = 100%) [1, 4]: 62 +/− 8%
CN1CCN(C2Cc3ccccc3Sc3ccc(Cl)cc32)CC1.O=C(O)/C=C\C(=O)O (stereo not shown) [octoclothepin] | – | – | – | – | D3 basal (basal response, no drug = 100%) [2]: 60 +/− 8%
Cc1cc2c(s1)Nc1ccccc1N=C2N1CCN(C)CC1 [olanzapine] | – | – | – | – | D3 basal (basal response, no drug = 100%) [2, 4]: 83 +/− 6%; D2 basal (basal response, no drug = 100%) [1]: 83 +/− 6%
CN1CCN(C2=Nc3ccccc3Cc3ccccc32)CC1 [perlapine] | – | – | 74% | 58% | –
O=c1[nH]c2ccccc2n1C1CCN(CCCC(c2ccc(F)cc2)c2ccc(F)cc2)CC1 [pimozide] | – | – | 54% | 43% | –
CN1CCN(CCCN2c3ccccc3Sc3ccc(Cl)cc32)CC1 [prochlorperazine] | – | – | 53% | 57% | –
CN(C)CCCN1c2ccccc2Sc2ccccc21 [promazine] | – | – | 83% | 76% | –
Cc1nc2n(c(=O)c1CCN1CCC(c3noc4cc(F)ccc34)CC1)CCCC2 [risperidone] | – | – | – | – | D2 basal (basal response, no drug = 100%) [1]: 63 +/− 2%
O=C1NCCN1CCN1CCC(c2cn(-c3ccc(F)cc3)c3ccc(Cl)cc23)CC1 [sertindole] | – | – | – | 61% | –
O=C(CCCN1CCC2(CC1)C(=O)NCN2c1ccccc1)c1ccc(F)cc1 [spiperone] | – | – | – | – | D2 basal (basal response, no drug = 100%) [1]: 51 +/− 1%
CCN1CCCC1CNC(=O)c1cc(S(N)(=O)=O)ccc1OC (stereo not shown) [sulpiride] | – | – | – | 59% | D3 basal (basal response, no drug = 100%) [2, 4]: 55 +/− 9%
CSc1ccc2c(c1)N(CCC1CCCCN1C)c1ccccc1S2 (stereo not shown) [thioridazine] | – | – | 81% | 81% | –
CN1CCN(CC/C=C2/c3ccccc3Sc3ccc(S(=O)(=O)N(C)C)cc32)CC1 [thiothixene] | – | – | 68% | 73% | –
CCN(CC)CCNC(=O)c1cc(S(C)(=O)=O)ccc1OC [tiapride] | – | – | 57% | 65% | –
OCCN1CCN(CC/C=C2\c3ccccc3Sc3ccc(C(F)(F)F)cc32)CC1 [trans-(e)-flupenthixol] | – | – | – | – | D2 basal (basal response, no drug = 100%) [1]: 68 +/− 4%
CN1CCN(CCCN2c3ccccc3Sc3ccc(C(F)(F)F)cc32)CC1 [trifluoperazine] | – | – | – | 58% | –
O=C(CCCN1CCC(O)(c2cccc(C(F)(F)F)c2)CC1)c1ccc(F)cc1 [trifluperidol] | – | – | 54% | 58% | –
O=C1Cc2cc(CCN3CCN(c4nsc5ccccc45)CC3)c(Cl)cc2N1 [ziprasidone] | – | – | – | – | D2 basal (basal response, no drug = 100%) [1, 4]: 66 +/− 8%
